Laboratory results taken from US11046713B2, “Androgen receptor modulating compounds” (ORION CORPORATION, priority 2009, dated 2021).

System: VCaP prostate cancer cell line
Test: Inhibition of mibolerone-induced VCaP cell proliferation (WST-1)
Assay type: cell-based
Details: mibolerone-induced (usually 0.1 nM), 4-5 days
Method: The IC50 value of the test compound for inhibition of mibolerone-induced VCaP cell proliferation was measured.
Cell Proliferation Assays
The ability of test compounds to inhibit prostate cancer cell growth was studied by measuring inhibition of cell proliferation using androgen-sensitive VCaP prostate cancer cell line. […] Cell proliferation was measured using WST-1 Cell Proliferation Assay (Roche).

SMILES	IC50 (Homo sapiens, VCaP)	IC50
O=C(NCCc1ccc(-c2ccc(Cl)c(Cl)c2)o1)c1cc(C(=O)N2CCOCC2)n[nH]1 [Example 8, N-(2-(5-(3,4-dichlorophenyl)furan-2-yl)ethyl)-3-(morpholine-4-carbonyl)-1H-pyrazole-5-carboxamide]	1600 nM	
Cc1cc(-c2ccn(C[C@H](C)NC(=O)c3cc(-c4ccco4)n[nH]3)n2)ccc1C#N [Example 32, (S)—N-(1-(3-(4-cyano-3-methylphenyl)-1H-pyrazol-1-yl)propan-2-yl)-3-(furan-2-yl)-1H-pyrazole-5-carboxamide]	560 nM	
N#Cc1ccc(-c2ccn(CCNC(=O)c3cc(-c4cccnc4)n[nH]3)n2)cc1C#N [Example 52, N-(2-(3-(3,4-dicyanophenyl)-1H-pyrazol-1-yl)ethyl)-3-(pyridin-3-yl)-1H-pyrazole-5-carboxamide]	450 nM	
Cc1cc(-c2ccn(CCNC(=O)c3cc(-c4cccnc4)n[nH]3)n2)ccc1C#N [Example 53, N-(2-(3-(4-cyano-3-methylphenyl)-1H-pyrazol-1-yl)ethyl)-3-(pyridin-3-yl)-1H-pyrazole-5-carboxamide]	500 nM	
CCc1noc(C(=O)N[C@@H](C)Cn2ccc(-c3ccc(C#N)c(Cl)c3)n2)n1 [Example 91, (S)—N-(1-(3-(3-chloro-4-cyanophenyl)-1H-pyrazol-1-yl)propan-2-yl)-3-ethyl-1,2,4-oxadiazole-5-carboxamide]	330 nM	
Cc1nc(-c2cc(C(=O)N[C@@H](C)Cn3ccc(-c4ccc(C#N)c(Cl)c4)n3)n[nH]2)cs1 [Example 94, (S)—N-(1-(3-(3-chloro-4-cyanophenyl)-1H-pyrazol-1-yl)propan-2-yl)-5-(2-methylthiazol-4-yl)-1H-pyrazole-3-carboxamide]	790 nM	
Cc1noc(C(=O)N[C@@H](C)Cn2ccc(-c3ccc(C#N)c(Cl)c3)n2)n1 [Example 103, (S)—N-(1-(3-(3-chloro-4-cyanophenyl)-1H-pyrazol-1-yl)propan-2-yl)-3-methyl-1,2,4-oxadiazole-5-carboxamide]	230 nM	
CC(O)c1cc(C(=O)N[C@@H](C)Cn2ccc(-c3ccc(C#N)c(Cl)c3)n2)no1 (stereo partly drawn) [Example 124, N—((S)-1-(3-(3-chloro-4-cyanophenyl)-1H-pyrazol-1-yl)propan-2-yl)-5-(1-hydroxyethyl)isoxazole-3-carboxamide]	430 nM	
C[C@H](Cn1ccc(-c2ccc(C#N)c(Cl)c2)n1)NC(=O)c1csc(N2CCOCC2)n1 [Example 132, (R)—N-(1-(3-(3-chloro-4-cyanophenyl)-1H-pyrazol-1-yl)propan-2-yl)-2-morpholinothiazole-4-carboxamide]	210 nM	
Cc1c(-c2ccn(C[C@H](C)NC(=O)c3csc(C(C)O)n3)n2)ccc(C#N)c1Cl (stereo partly drawn) [Example 186, N—((S)-1-(3-(3-chloro-4-cyano-2-methylphenyl)-1H-pyrazol-1-yl)propan-2-yl)-2-(1-hydroxyethyl)thiazole-4-carboxamide]	310 nM	
C[C@@H](Cn1ccc(-c2ccc(C#N)c(Cl)c2)n1)NC(=O)c1csc(-c2cn[nH]c2)n1 [Example 206, (S)—N-(1-(3-(3-chloro-4-cyanophenyl)-1H-pyrazol-1-yl)propan-2-yl)-2-(1H-pyrazol-4-yl)thiazole-4-carboxamide]	490 nM	
C[C@H](CNC(=O)c1csc(CC#N)n1)n1ccc(-c2cc(F)c(C#N)c(F)c2)n1 [Example 222, (R)—N-(2-(3-(4-cyano-3,5-difluorophenyl)-1H-pyrazol-1-yl)propyl)-2-(cyanomethyl)thiazole-4-carboxamide]	250 nM	
Cc1nc(C(=O)N[C@@H](C)Cn2ccc(-c3ccc(C#N)c(Cl)c3)n2)c[nH]1 [Example 248, (S)—N-{1-[3-(3-Chloro-4-cyanophenyl)-1H-pyrazol-1-yl]propan-2-yl}-2-methyl-H-imidazole-4-carboxamide]		490 nM
Cc1nc(C(=O)N[C@@H](C)Cn2ccc(-c3cc(F)c(C#N)c(Cl)c3)n2)c[nH]1 [Example 249, (S)—N-{1-[3-(3-Chloro-4-cyano-5-fluorophenyl)-1H-pyrazol-1-yl]propan-2-yl}-2-methyl-1H-imidazole-4-carboxamide]	320 nM	
C[C@@H](Cn1ccc(-c2cc(F)c(C#N)c(Cl)c2)n1)NC(=O)c1cn2cccnc2n1 [Example 324, (S)—N-(1-(3-(3-chloro-4-cyano-5-fluorophenyl)-1H-pyrazol-1-yl)propan-2-yl)imidazo [1,2-a]pyrimidine-2-carboxamide]	1000 nM	
C[C@@H](Cn1ccc(-c2ccc(C#N)c(Cl)c2)n1)NC(=O)c1[nH]nc2c1COCC2 [Example 338, (S)—N-(1-(3-(3-chloro-4-cyanophenyl)-1H-pyrazol-1-yl)propan-2-yl)-2,4,6,7-tetrahydropyrano [4,3-c]pyrazole-3-carboxamide]	340 nM	
